Measured values taken from the NIST ThermoML archive (doi:10.1021/je900387e).
Numbers after ± are expanded uncertainties.

Test: xn = mol fraction of the nth substance listed
Conditions: Liquid, Pycnometric method

CCCCBr [1-bromobutane] + O=C=O
Conditions | mass density [kg/m3]
308.2 K, 6320 kPa, x1 = 0.1495 | 1011 ± 4
308.2 K, 6620 kPa, x1 = 0.0989 | 890 ± 4
308.2 K, 6840 kPa, x1 = 0.0989 | 897 ± 4
308.2 K, 6850 kPa, x1 = 0.0683 | 834 ± 4
308.2 K, 6930 kPa, x1 = 0.0683 | 836 ± 4
308.2 K, 6980 kPa, x1 = 0.0683 | 838 ± 4
308.2 K, 7040 kPa, x1 = 0.0989 | 903 ± 4
308.2 K, 7050 kPa, x1 = 0.0683 | 842 ± 4
308.2 K, 7090 kPa, x1 = 0.0461 | 805 ± 4
308.2 K, 7090 kPa, x1 = 0.0683 | 845 ± 4
308.2 K, 7160 kPa, x1 = 0.0683 | 848 ± 4
308.2 K, 7230 kPa, x1 = 0.0461 | 811 ± 4
308.2 K, 7240 kPa, x1 = 0.0683 | 850 ± 4
308.2 K, 7350 kPa, x1 = 0.0683 | 854 ± 4
308.2 K, 7350 kPa, x1 = 0.0989 | 910 ± 4
308.2 K, 7380 kPa, x1 = 0.0245 | 712 ± 4
308.2 K, 7390 kPa, x1 = 0.0461 | 817 ± 4
308.2 K, 7400 kPa, x1 = 0.0245 | 711 ± 4
308.2 K, 7400 kPa, x1 = 0.1495 | 1018 ± 4
308.2 K, 7420 kPa, x1 = 0.0245 | 713 ± 4
308.2 K, 7440 kPa, x1 = 0.0245 | 716 ± 4
308.2 K, 7450 kPa, x1 = 0.0683 | 858 ± 4
308.2 K, 7480 kPa, x1 = 0.0245 | 720 ± 4
308.2 K, 7520 kPa, x1 = 0.0245 | 724 ± 4
308.2 K, 7540 kPa, x1 = 0.0683 | 861 ± 4
308.2 K, 7550 kPa, x1 = 0.0461 | 823 ± 4
308.2 K, 7590 kPa, x1 = 0.0245 | 729 ± 4
308.2 K, 7640 kPa, x1 = 0.0245 | 734 ± 4
308.2 K, 7660 kPa, x1 = 0.0461 | 827 ± 4
308.2 K, 7660 kPa, x1 = 0.0683 | 864 ± 4
308.2 K, 7700 kPa, x1 = 0.0245 | 738 ± 4
308.2 K, 7700 kPa, x1 = 0.0989 | 916 ± 4
308.2 K, 7750 kPa, x1 = 0.0461 | 830 ± 4
308.2 K, 7770 kPa, x1 = 0.0245 | 743 ± 4
308.2 K, 7780 kPa, x1 = 0.0683 | 867 ± 4
308.2 K, 7830 kPa, x1 = 0.0245 | 747 ± 4
308.2 K, 7850 kPa, x1 = 0.0461 | 833 ± 4
308.2 K, 7920 kPa, x1 = 0.0245 | 752 ± 4
308.2 K, 7950 kPa, x1 = 0.0461 | 836 ± 4
308.2 K, 8010 kPa, x1 = 0.0245 | 757 ± 4
308.2 K, 8060 kPa, x1 = 0.0461 | 839 ± 4
308.2 K, 8090 kPa, x1 = 0.0245 | 762 ± 4
308.2 K, 8120 kPa, x1 = 0.0989 | 924 ± 4
308.2 K, 8190 kPa, x1 = 0.0461 | 843 ± 4
308.2 K, 8190 kPa, x1 = 0.1495 | 1026 ± 4
308.2 K, 8200 kPa, x1 = 0.0245 | 767 ± 4
308.2 K, 8300 kPa, x1 = 0.0245 | 772 ± 4
308.2 K, 8420 kPa, x1 = 0.0245 | 777 ± 4
308.2 K, 8610 kPa, x1 = 0.0989 | 930 ± 4
308.2 K, 8620 kPa, x1 = 0.0245 | 785 ± 4
308.2 K, 8840 kPa, x1 = 0.0245 | 793 ± 4
308.2 K, 9040 kPa, x1 = 0.1495 | 1033 ± 4
308.2 K, 9100 kPa, x1 = 0.0245 | 801 ± 4
308.2 K, 9190 kPa, x1 = 0.0989 | 938 ± 4
308.2 K, 9370 kPa, x1 = 0.0245 | 809 ± 4
308.2 K, 9680 kPa, x1 = 0.0245 | 818 ± 4
308.2 K, 9820 kPa, x1 = 0.0989 | 944 ± 4
308.2 K, 9960 kPa, x1 = 0.1495 | 1041 ± 4
308.2 K, 10040 kPa, x1 = 0.0245 | 827 ± 4
308.2 K, 10130 kPa, x1 = 0.0989 | 948 ± 4
308.2 K, 10420 kPa, x1 = 0.0245 | 835 ± 4
308.2 K, 10860 kPa, x1 = 0.0245 | 844 ± 4
308.2 K, 10920 kPa, x1 = 0.1495 | 1048 ± 4
308.2 K, 11350 kPa, x1 = 0.0245 | 853 ± 4
308.2 K, 11370 kPa, x1 = 0.1495 | 1051 ± 4
308.2 K, 11880 kPa, x1 = 0.0245 | 863 ± 4
308.2 K, 11910 kPa, x1 = 0.1495 | 1055 ± 4
308.2 K, 12480 kPa, x1 = 0.0245 | 873 ± 4
308.2 K, 12510 kPa, x1 = 0.1495 | 1060 ± 4
308.2 K, 13080 kPa, x1 = 0.1495 | 1063 ± 4
308.2 K, 13130 kPa, x1 = 0.0245 | 882 ± 4
308.2 K, 13590 kPa, x1 = 0.0245 | 889 ± 4
308.2 K, 13640 kPa, x1 = 0.1495 | 1067 ± 4
308.2 K, 14140 kPa, x1 = 0.0245 | 896 ± 4
308.2 K, 14210 kPa, x1 = 0.1495 | 1071 ± 4
308.2 K, 14290 kPa, x1 = 0.0245 | 899 ± 4
308.2 K, 14850 kPa, x1 = 0.1495 | 1075 ± 4
308.2 K, 15150 kPa, x1 = 0.1495 | 1077 ± 4
313.1 K, 6900 kPa, x1 = 0.1495 | 986 ± 4
313.1 K, 7230 kPa, x1 = 0.0989 | 875 ± 4
313.1 K, 7250 kPa, x1 = 0.1495 | 991 ± 4
313.1 K, 7480 kPa, x1 = 0.0683 | 811 ± 4
313.1 K, 7510 kPa, x1 = 0.1495 | 994 ± 4
313.1 K, 7520 kPa, x1 = 0.0989 | 881 ± 4
313.1 K, 7590 kPa, x1 = 0.0683 | 814 ± 4
313.1 K, 7670 kPa, x1 = 0.0683 | 817 ± 4
313.1 K, 7680 kPa, x1 = 0.0461 | 756 ± 4
313.1 K, 7730 kPa, x1 = 0.0461 | 758 ± 4
313.1 K, 7760 kPa, x1 = 0.0683 | 820 ± 4
313.1 K, 7770 kPa, x1 = 0.1495 | 997 ± 4
313.1 K, 7820 kPa, x1 = 0.0461 | 764 ± 4
313.1 K, 7830 kPa, x1 = 0.0989 | 882 ± 4
313.1 K, 7860 kPa, x1 = 0.0683 | 823 ± 4
